Results reported in patent publication US12655116B2, “Substituted isophthalic acid diamides” (Bayer Aktiengesellschaft, priority 2020, dated 2026).

Tests used:
VIOTR [1] = test: Post-emergence herbicidal action against VIOTR; assay type: in vivo, Viola tricolor; settings: Viola tricolor, 504 h
How it was run: (§1)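 Visual % rating (0% = as untreated, 100% = dead) ~3 wk after spraying one-leaf-stage plants grown in sandy loam; WP/EC in water at 600–800 l/ha, 0.2% wetting agent.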

ECHCG [2] = test: Pre-emergence herbicidal action against ECHCG; assay type: in vivo, Echinochloa crus-galli; settings: Echinochloa crus-galli, 504 h, 80 g/ha
How it was run: (§2)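 Sandy loam pots, seeds covered with soil, then surface-treated with WP or EC formulations at 600–800 l/ha water plus 0.2% wetting agent. Greenhouse, 3 weeks. Percent damage vs untreated controls.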

PHBPU [3] = test: Post-emergence herbicidal action against PHBPU; assay type: in vivo, Pharbitis purpurea; settings: Ipomoea purpurea, 504 h
How it was run: as §1

PHBPU [4] = test: Pre-emergence herbicidal action against PHBPU; assay type: in vivo, Pharbitis purpurea; settings: Ipomoea purpurea, 504 h, dosage 80 g/ha
How it was run: as §2

VIOTR [5] = test: Pre-emergence herbicidal action against VIOTR; assay type: in vivo, Viola tricolor; settings: Viola tricolor, 504 h; for pest or weed control at 20 g/ha: dosage 20 g/ha; for pest or weed control at 80 g/ha: dosage 80 g/ha
How it was run: as §2

VERPE [6] = test: Pre-emergence herbicidal action against VERPE; assay type: in vivo, Veronica persica; settings: Veronica persica, 504 h, dosage 80 g/ha
How it was run: as §2

ABUTH [7] = test: Post-emergence herbicidal action against ABUTH; assay type: in vivo, Abutilon theophrasti; settings: Abutilon theophrasti, 504 h, visual assessment about 3 weeks after treatment vs untreated controls; for pest or weed control at 5 g/ha: dosage 5 g/ha; for pest or weed control at 20 g/ha: dosage 20 g/ha
How it was run: as §1

VERPE [8] = test: Post-emergence herbicidal action against VERPE; assay type: in vivo, Veronica persica; settings: Veronica persica, 504 h, 20 g/ha
How it was run: as §1

MATIN [9] = test: Pre-emergence herbicidal action against MATIN; assay type: in vivo, Matricaria inodora; settings: Tripleurospermum inodorum, 504 h; for pest or weed control at 20 g/ha: dosage 20 g/ha; for pest or weed control at 80 g/ha: dosage 80 g/ha
How it was run: as §2

DIGSA [10] = test: Pre-emergence herbicidal action against DIGSA; assay type: in vivo, Digitaria sanguinalis; settings: Digitaria sanguinalis, 504 h; for pest or weed control at 20 g/ha: dosage 20 g/ha; for pest or weed control at 80 g/ha: dosage 80 g/ha
How it was run: as §2

AMARE [11] = test: Pre-emergence herbicidal action against AMARE; assay type: in vivo, Amaranthus retroflexus; settings: Amaranthus retroflexus, 504 h, scored visually after 3 weeks vs untreated controls, 100% = plants have died, 0% = like control plants
How it was run: as §2

DIGSA [12] = test: Post-emergence herbicidal action against DIGSA; assay type: in vivo, Digitaria sanguinalis; settings: Digitaria sanguinalis, 504 h
How it was run: as §1

SETVI = test: Pre-emergence herbicidal action against SETVI; assay type: in vivo, Setaria viridis; settings: Setaria viridis, 504 h; for pest or weed control at 20 g/ha: dosage 20 g/ha; for pest or weed control at 80 g/ha: dosage 80 g/ha
How it was run: as §2

ABUTH [13] = test: Pre-emergence herbicidal action against ABUTH; assay type: in vivo, Abutilon theophrasti; settings: Abutilon theophrasti, 504 h; for pest or weed control at 80 g/ha: scored visually after 3 weeks vs untreated controls (100% = plants have died, 0% = like control plants); for pest or weed control at 20 g/ha: dosage 20 g/ha, scored visually after 3 weeks vs untreated controls, 100% = plants have died, 0% = like control plants, read-out: Pre-emergence action against ABUTH (herbicidal activity in percent)
How it was run: as §2

MATIN [14] = test: Post-emergence herbicidal action against MATIN; assay type: in vivo, Matricaria inodora; settings: Tripleurospermum inodorum, 504 h
How it was run: as §1

ECHCG [15] = test: Post-emergence herbicidal action against ECHCG; assay type: in vivo, Echinochloa crus-galli; settings: Echinochloa crus-galli, 504 h, dosage 20 g/ha
How it was run: as §1

AVEFA = test: Pre-emergence herbicidal action against AVEFA; assay type: in vivo, Avena fatua; settings: Avena fatua, 504 h; 80 g/ha, pre-emergence
How it was run: as §2

AMARE [16] = test: Post-emergence herbicidal action against AMARE; assay type: in vivo, Amaranthus retroflexus; settings: Amaranthus retroflexus, 504 h, 20 g/ha, visual assessment about 3 weeks after treatment, 100% = plants have died, 0% = like control plants
How it was run: as §1

ALOMY = test: Pre-emergence herbicidal action against ALOMY; assay type: in vivo, Alopecurus myosuroides; settings: Alopecurus myosuroides, 504 h, pre-emergence
How it was run: as §2

SMILES | pest or weed control at 20 g/ha (VIOTR [1]) | pest or weed control at 80 g/ha (ECHCG [2]) | pest or weed control at 80 g/ha (PHBPU [4]) | pest or weed control at 20 g/ha (VIOTR [5]) | pest or weed control at 80 g/ha (VIOTR [5]) | pest or weed control at 80 g/ha (VERPE [6]) | pest or weed control at 5 g/ha (ABUTH [7]) | pest or weed control at 20 g/ha (ABUTH [7]) | pest or weed control at 20 g/ha (VERPE [8]) | pest or weed control at 20 g/ha (MATIN [9]) | pest or weed control at 80 g/ha (MATIN [9]) | pest or weed control at 20 g/ha (DIGSA [10]) | pest or weed control at 80 g/ha (DIGSA [10]) | pest or weed control at 20 g/ha (AMARE [11]) | pest or weed control at 80 g/ha (AMARE [11]) | pest or weed control at 20 g/ha (DIGSA [12]) | pest or weed control at 20 g/ha (SETVI) | pest or weed control at 80 g/ha (SETVI) | pest or weed control at 80 g/ha (ABUTH [13]) | pest or weed control at 20 g/ha (ABUTH [13]) | also measured
CCNC(=O)c1c(C(F)(F)F)ccc(C(=O)Nc2nnnn2C)c1C1CC1 [Example 1-287] | 80% | 90% | 100% | 100% | 100% | 90% | 90% | 100% | 80% | 100% | 100% | 100% | 100% | 100% | 100% | 100% | 90% | 100% | 100% | 100% | pest or weed control at 5 g/ha (PHBPU [3]; dosage 5 g/ha): 90%; pest or weed control at 20 g/ha (PHBPU [3]; dosage 20 g/ha): 100%; pest or weed control at 5 g/ha (DIGSA [12]; 5 g/ha): 100%; pest or weed control at 5 g/ha (MATIN [14]; dosage 5 g/ha): 80%; pest or weed control at 20 g/ha (MATIN [14]; dosage 20 g/ha): 90%; pest or weed control at 20 g/ha (ECHCG [15]): 100%
CCn1nnnc1NC(=O)c1ccc(C(F)F)c(C(=O)NC2CC2)c1Br [Example 2-227] | 100% | 100% | 90% | 100% | 100% | 100% | 100% | 100% | 80% | 100% | 100% | 90% | 100% | 100% | 100% | 100% | 100% | 100% | 100% | 100% | pest or weed control at 5 g/ha (VIOTR [1]; 5 g/ha): 90%; pest or weed control at 80 g/ha (AVEFA): 90%; pest or weed control at 20 g/ha (AMARE [16]): 100%; pest or weed control at 20 g/ha (ECHCG [15]): 80%; pest or weed control at 80 g/ha (ALOMY; 80 g/ha, scored visually after 3 weeks vs untreated controls (100% = plants have died, 0% = like control plants)): 100%; pest or weed control at 20 g/ha (ALOMY; 20 g/ha, scored visually after 3 weeks, 100% = plants have died, 0% = like control plants): 80%
